Article PMC11928621 (Nature Communications, 2025)
Where a name gives a salt, the structure may show the parent alone.

B1: human LYCHOS (lysosomal cholesterol signaling protein), C-terminal FLAG and 10×His tags (natural protein, UniProt Q7Z3F1 1-870, looked up)
chain: MNSNLPAENLTIAVNMTKTLPTAVTHGFNSTNDPPSMSITRLFPALLECFGIVLCGYIAGRANVITSTQAKGLGNFVSRFALPALLFKNMVVLNFSNVDWSFLYSILIAKASVFFIVCVLTLLVASPDSRFSKAGLFPIFATQSNDFALGYPIVEALYQTTYPEYLQYIYLVAPISLMMLNPIGFIFCEIQKWKDTQNASQNKIKIVGLGLLRVLQNPIVFMVFIGIAFNFILDRKVPVYVENFLDGLGNSFSGSALFYLGLTMVGKIKRLKKSAFVVLILLITAKLLVLPLLCREMVELLDKGDSVVNHTSLSNYAFLYGVFPVAPGVAIFATQFNMEVEIITSGMVISTFVSAPIMYVSAWLLTFPTMDPKPLAYAIQNVSFDISIVSLISLIWSLAILLLSKKYKQLPHMLTTNLLIAQSIVCAGMMIWNFVKEKNFVGQILVFVLLYSSLYSTYLWTGLLAISLFLLKKRERVQIPVGIIIISGWGIPALLVGVLLITGKHNGDSIDSAFFYGKEQMITTAVTLFCSILIAGISLMCMNQTAQAGSYEGFDQSQSHKVVEPGNTAFEESPAPVNEPELFTSSIPETSCCSCSMGNGELHCPSIEPIANTSTSEPVIPSFEKNNHCVSRCNSQSCILAQEEEQYLQSGDQQLTRHVLLCLLLIIGLFANLSSCLWWLFNQEPGRLYVELQFFCAVFNFGQGFISFGIFGLDKHLIILPFKRRLEFLWNNKDTAENRDSPVSEEIKMTCQQFIHYHRDLCIRNIVKERRCGAKTSAGTFCGCDLVSWLIEVGLASDRGEAVIYGDRLVQGGVIQHITNEYEFRDEYLFYRFLQKSPEQSPPAINANTLQQERYKEIEHSSPPSHSPKT
modifications: N-acetylglucosamine linked to Asn309

Columns and labels:
LYCHOS = biological target: T1, LYCHOS (Homo sapiens, UniProt Q7Z3F1); assay: SPR Kd and cryo-EM structure of the complex; assay type: binding
T1 sequence (Q7Z3F1 1-870): B1 chain

cryo-EM structure = biological target: the molecule itself; assay: cryo-EM structure

Molecule	Kd (LYCHOS)	stoichiometry N (cryo-EM structure)
O=S(=O)(O)Oc1c[nH]c2ccccc12 [IS, indoxyl sulfate]	~150 µM	
B1		2
